Data published in ChEMBL document CHEMBL5505975, “Design, synthesis and biological evaluation of CDC20 inhibitors for treatment of triple-negative breast cancer” (Eur J Med Chem, 2024).
The source made the active and inactive calls. The calls are words filed in the database; no cut-off is given here.

Legend:
[1] = Toxicity in female BALB/C mouse implanted with mouse 4T1 cells assessed as lung damage at 20 to 50 mg/kg, iv administered every two days for 21 days by H and E staining based analysis; type: organism-based; conditions: in vivo, 504 h, dose 20-50 mg/kg, time 21 day
[2] = tested on: MDA-MB-231; test: Cell cycle arrest in human MDA-MB-231 cells assessed as G1 phase cells at 20 uM incubated for 24 hrs by PI staining based flow cytometric analysis (reference value: 56.7%); type: functional
[3] = Toxicity in female BALB/C mouse implanted with mouse 4T1 cells assessed as spleen damage at 20 to 50 mg/kg, po administered every two days for 21 days by H and E staining based analysis; type: organism-based; conditions: in vivo, 504 h, dose 20-50 mg/kg, time 21 day
[4] = tested on: 4T1; test: Antitumor activity against mouse 4T1 cells implanted in female BALB/C mouse assessed as inhibition of tumor growth at 20 to 50 mg/kg, iv administered every two days for 21 days; type: functional, organism-based; conditions: dose 20-50 mg/kg, time 21.0 day
[5] = tested on: MDA-MB-231; test: Cell cycle arrest in human MDA-MB-231 cells assessed as G2 phase cells at 20 uM incubated for 48 hrs by PI staining based flow cytometric analysis (reference value: 7.3%); type: functional
[6] = tested on: MDA-MB-231; test: Effect on cell morphology in human MDA-MB-231 cells at 2.5 to 10 uM incubated for 24 hrs by wound healing assay; type: functional, cell-based; conditions: dose 2.5-10 µM
[7] = tested on: MDA-MB-231; test: Induction of apoptosis in human MDA-MB-231 cells assessed as necrotic cells at 20 uM incubated for 48 hrs by Annexin V-FITC/PI staining based flow cytometric analysis (reference value: 1.63%); type: functional
[8] = Toxicity in female BALB/C mouse implanted with mouse 4T1 cells assessed as effect on monocytes at 20 to 50 mg/kg, po administered every two days for 21 days by routine blood analysis; type: organism-based; conditions: in vivo, 504 h, dose 20-50 mg/kg, time 21 day
[9] = tested on: MCF7; test: Antiproliferative activity against human MCF7 cells assessed as reduction in cell viability incubated for 96 hrs by MTT assay; conditions: MCF7, 96 h
[10] = tested on: MDA-MB-231; test: Cell cycle arrest in human MDA-MB-231 cells assessed as G2 phase cells at 5 uM incubated for 48 hrs by PI staining based flow cytometric analysis (reference value: 7.3%); type: functional
[11] = tested on: A549; test: Antiproliferative activity against human A549 cells assessed as reduction in cell viability incubated for 96 hrs by MTT assay; conditions: A549, 96 h
[12] = tested on: MDA-MB-231; test: Cell cycle arrest in human MDA-MB-231 cells assessed as G2 phase cells at 20 uM incubated for 72 hrs by PI staining based flow cytometric analysis (reference value: 14.6%); type: functional
[13] = tested on: MDA-MB-231; test: Induction of apoptosis in human MDA-MB-231 cells assessed as early apoptotic cells at 20 uM incubated for 48 hrs by Annexin V-FITC/PI staining based flow cytometric analysis (reference value: 2.25 %); type: functional
[14] = Toxicity in female BALB/C mouse implanted with mouse 4T1 cells assessed as effect on lymphocytes at 20 to 50 mg/kg, po administered every two days for 21 days by routine blood analysis; type: organism-based; conditions: in vivo, 504 h, dose 20-50 mg/kg, time 21 day
[15] = tested on: MDA-MB-231; test: Cell cycle arrest in human MDA-MB-231 cells assessed as G1 phase cells at 20 uM incubated for 48 hrs by PI staining based flow cytometric analysis (reference value: 76.7%); type: functional
[16] = tested on: MDA-MB-231; test: Cell cycle arrest in human MDA-MB-231 cells assessed as G2 phase cells at 20 uM incubated for 48 hrs by PI staining based flow cytometric analysis (reference value: 14.6%); type: functional
[17] = Toxicity in female BALB/C mouse implanted with mouse 4T1 cells assessed as change in serum BUN level at 20 to 50 mg/kg, po administered every two days for 21 days; type: organism-based; conditions: in vivo, 504 h, dose 20-50 mg/kg, time 21 day
[18] = tested on: MDA-MB-231; test: Cell cycle arrest in human MDA-MB-231 cells assessed as G1 phase cells at 20 uM incubated for 48 hrs by PI staining based flow cytometric analysis (reference value: 56.7%); type: functional
[19] = Toxicity in female BALB/C mouse implanted with mouse 4T1 cells assessed as change in WBC level at 20 to 50 mg/kg, iv administered every two days for 21 days by routine blood analysis; type: organism-based; conditions: in vivo, 504 h, dose 20-50 mg/kg, time 21 day
[20] = tested on: MDA-MB-231; test: Cell cycle arrest in human MDA-MB-231 cells assessed as G2 phase cells at 10 uM incubated for 48 hrs by PI staining based flow cytometric analysis (reference value: 7.3%); type: functional
[21] = Toxicity in female BALB/C mouse implanted with mouse 4T1 cells assessed as effect on lymphocytes at 20 to 50 mg/kg, iv administered every two days for 21 days by routine blood analysis; type: organism-based; conditions: in vivo, 504 h, dose 20-50 mg/kg, time 21 day
[22] = Toxicity in female BALB/C mouse implanted with mouse 4T1 cells assessed as change in serum ALT level at 20 to 50 mg/kg, iv administered every two days for 21 days; type: organism-based; conditions: in vivo, 504 h, dose 20-50 mg/kg, time 21 day
[23] = Toxicity in female BALB/C mouse implanted with mouse 4T1 cells assessed as effect on body weight at 20 to 50 mg/kg, iv administered every two days for 21 days; type: organism-based; conditions: in vivo, 504 h, dose 20-50 mg/kg, time 21 day
[24] = tested on: MDA-MB-231; test: Cell cycle arrest in human MDA-MB-231 cells assessed as S phase cells at 20 uM incubated for 48 hrs by PI staining based flow cytometric analysis (reference value: 16.0%); type: functional
[25] = Toxicity in female BALB/C mouse implanted with mouse 4T1 cells assessed as effect on body weight at 20 to 50 mg/kg, po administered every two days for 21 days; type: organism-based; conditions: in vivo, 504 h, dose 20-50 mg/kg, time 21 day
[26] = Toxicity in female BALB/C mouse implanted with mouse 4T1 cells assessed as change in serum ALT level at 20 to 50 mg/kg, po administered every two days for 21 days; type: organism-based; conditions: in vivo, 504 h, dose 20-50 mg/kg, time 21 day
[27] = tested on: MDA-MB-231; test: Induction of autophagy in human MDA-MB-231 cells assessed as decrease in P62 expression level incubated for 48 hrs by Western blot analysis; type: functional, cell-based; conditions: dose 5-20 µM
[28] = Toxicity in female BALB/C mouse implanted with mouse 4T1 cells assessed as change in RBC level at 20 to 50 mg/kg, iv administered every two days for 21 days by routine blood analysis; type: organism-based; conditions: in vivo, 504 h, dose 20-50 mg/kg, time 21 day
[29] = Cytotoxicity against human L02 cells assessed as reduction in cell viability incubated for 96 hrs by MTT assay; type: toxicity, cell-based
[30] = tested on: 4T1; test: Antitumor activity against mouse 4T1 cells implanted in female BALB/C mouse assessed as inhibition of tumor weight at 20 mg/kg, iv administered every two days for 21 days relative to control; type: functional, organism-based; conditions: time 21.0 day
[31] = Toxicity in female BALB/C mouse implanted with mouse 4T1 cells assessed as liver damage at 20 to 50 mg/kg, po administered every two days for 21 days by H and E staining based analysis; type: organism-based; conditions: in vivo, 504 h, dose 20-50 mg/kg, time 21 day
[32] = tested on: MDA-MB-231; test: Induction of apoptosis in human MDA-MB-231 cells assessed as early apoptotic cells at 5 uM incubated for 48 hrs by Annexin V-FITC/PI staining based flow cytometric analysis (reference value: 2.25 %); type: functional
[33] = Toxicity in female BALB/C mouse implanted with mouse 4T1 cells assessed as effect on neutrophils at 20 to 50 mg/kg, iv administered every two days for 21 days by routine blood analysis; type: organism-based; conditions: in vivo, 504 h, dose 20-50 mg/kg, time 21 day
[34] = Toxicity in female BALB/C mouse implanted with mouse 4T1 cells assessed as change in serum BUN level at 20 to 50 mg/kg, iv administered every two days for 21 days; type: organism-based; conditions: in vivo, 504 h, dose 20-50 mg/kg, time 21 day
[35] = tested on: MDA-MB-231; test: Cell cycle arrest in human MDA-MB-231 cells assessed as S phase cells at 10 uM incubated for 48 hrs by PI staining based flow cytometric analysis (reference value: 16.0%); type: functional

IC50 [9]: 3.27 µM
IC50 [11]: 6.47 µM
Structure (SMILES): CCC(=O)NC(n1cnc2c(Nc3cc(OC)c(OC)c(OC)c3)nc(N)nc21)C(Cl)(Cl)Cl (stereo not given)
Activity [1]: Non-Toxic
Activity [2]: 32.3%
Activity [3]: Non-Toxic
Activity [4]: Active
Activity [5]: 29.4%
Activity [6]: inactive
Activity [7]: 0.99%
Activity [8]: Non-Toxic
Activity [10]: 8.6%
Activity [12]: 51.1%
Activity [13]: 5.41%
Activity [14]: Non-Toxic
Activity [15]: 59%
Activity [16]: 45.7%
Activity [17]: Non-Toxic
Activity [18]: 41%
Activity [19]: Non-Toxic
Activity [20]: 10.6%
Activity [21]: Non-Toxic
Activity [22]: Non-Toxic
Activity [23]: Non-Toxic
Activity [24]: 11.6%
Activity [25]: Non-Toxic
Activity [26]: Non-Toxic
Activity [27]: Dose-Dependent Effect
Activity [28]: Non-Toxic
IC50 at 96 h [29]: 14.7 µM
Activity [30]: inactive
Activity [31]: Non-Toxic
Activity [32]: 4.37%
Activity [33]: Non-Toxic
Activity [34]: Non-Toxic
Activity [35]: 11.9%
